# Assay results from US20170368082A1, “FORMULATIONS OF BRINCIDOFOVIR” (priority 2016, published 2017).
# Test: Tissue distribution by quantitative whole-body autoradiography (QWBA)
# Format: in vivo, male Sprague Dawley and Long-Evans rats
# Details: PO 15 mg/kg, Group 7
# Protocol: The study utilized 4 groups of male SD rats (albino), and 3 groups of male LE rats (pigmented); a total of 39 rats. All animals were obtained from Hilltop Lab Animals, Inc. (Scottdale, Pa.). […] Rats in Group 5 were administered a single 2-h IV infusion of [^14C]brincidofovir at a target dose of 2 mg/kg. […] Three dosing formulations (one for high dose IV, one for low dose IV, and one for PO dose) were prepared at QPS on the day of dosing. The IV formulation for Groups 1, 2, 3, and 4 contained a vehicle of 10 mM sodium phosphate buffer in 5% dextrose solution at pH 8.0(±0.1).
# Each animal, at their respective termination time points, was euthanized for QWBA analysis immediately after blood collection. One rat per time point per Group was euthanized as listed below.
# The blood samples were maintained on wet ice (approximately 4° C.) and then centrifuged to obtain plasma within 1 h of the blood collection time. Centrifuge settings were recorded in the study notebook. Duplicate aliquots of plasma (0.050 mL) were analyzed for radioactivity using direct counting by LSC, and residual plasma was stored at approximately −70° C. and was saved for possible future analysis under a separate study protocol. Residual red blood cells were discarded as radioactive waste.
# The pinna, distal limbs, hair, and tail were removed from each frozen carcass and each frozen carcass was embedded in an aqueous suspension of approximately 2% (w/v) carboxymethylcellulose and frozen into a block. The blocks were stored at approximately −20° C. prior to sectioning. Each blocked carcass was mounted on the object stage of a cryomicrotome (Leica CM3600 Cryomacrocut, Nussloch, Germany and Vibratome 9800, St. Louis, Mo.) maintained at approximately −20° C. and internal standards (3), which were plasma fortified with [^14C]-glucose at one concentration (approximately 0.05 μCi/mL), were placed into the frozen blocks, prior to sectioning, and were used for section thickness quality control. A number of whole-body sections (approximately 40 μm thick) were taken in the sagittal plane at various levels of interest using a whole-body cryomicrotome set at −20° C. Sagittal sections (20-50 μm thick) of frozen carcasses were exposed to phosphor imaging plates. Regions of images in tissues were converted to concentrations using standards. All of the major tissues, organs, and biological fluids were represented.
# Tissue concentration data was determined for the following tissues and/or contents: adipose (brown and white), adrenal gland, bile (in duct), blood (cardiac), bone, bone marrow, brain (cerebrum, cerebellum, medulla), cecum (and contents), large intestine (and contents), epididymis, esophagus, eye (uvea and lens), Harderian gland, heart, kidney (cortex and medulla), liver, lung, lymph node, pancreas, pituitary gland, prostate gland, salivary gland, seminal vesicles, skeletal muscle, skin (pigmented and non-pigmented), small intestine (and contents), stomach (gastric mucosa and contents), spleen, spinal cord, testis, thymus, thyroid, and urinary bladder (and contents).
# The imaging plate and sections were placed in light-tight exposure cassettes, in a copper-lined lead safe, for a 4-day exposure at room temperature. […] Quantification was performed by image densitometry using MCD image analysis software (v. 7.0, Interfocus Imaging Ltd) and a standard curve constructed from the integrated response [i.e., Molecular Dynamics Counts per square millimeter (MDC/mm^2)] and the nominal concentrations of the ^14C-calibration standards. The concentrations of radioactivity were expressed as the μg equivalents of [^14C]brincidofovir per gram sample (μg equiv/g). A lower limit of quantification (LLOQ) was applied to the data (See section 6.7.4).
# Tissue concentrations that fell below the LLOQ were identified as being below the quantification limit (BQL). Tissue areas that were not visualized on autoradiographic images were identified as no sample (NS) and reported as BQL.
compound,measurement,setting,value
CCCCCCCCCCCCCCCCOCCCOP(=O)(O)CO[C@H](CO)Cn1ccc(N)nc1=O [[14C]brincidofovir],AUCall,Adipose (brown),24.3703 μg equiv · h/g
same,AUCinf—obs,Adipose (brown),24.4043 μg equiv · h/g
same,Tmax,Adipose (brown),4 h
same,t1/2,Adipose (brown),233.5 h
same,AUCall,Adipose (white),1.1215 μg equiv · h/g
same,AUCinf—obs,Adipose (white),2.4387 μg equiv · h/g
same,Tmax,Adipose (white),4 h
same,t1/2,"Adipose (white), estimate (footnote a)",17.6 h
same,AUCall,Adrenal Gland,74.5860 μg equiv · h/g
same,AUCinf—obs,Adrenal Gland,58.7136 μg equiv · h/g
same,Tmax,Adrenal Gland,8 h
same,t1/2,Adrenal Gland,43.2 h
same,AUCall,Blood (cardiac),21.9165 μg equiv · h/g
same,AUCinf—obs,Blood (cardiac),22.3146 μg equiv · h/g
same,Tmax,Blood (cardiac),8 h
same,t1/2,"Blood (cardiac), estimate (footnote a)",32.8 h
same,AUCall,Bone Marrow,68.7413 μg equiv · h/g
same,AUCinf—obs,Bone Marrow,50.2191 μg equiv · h/g
same,Tmax,Bone Marrow,8 h
same,t1/2,"Bone Marrow, estimate (footnote a)",96.3 h
same,AUCall,Bone,1.8470 μg equiv · h/g
same,AUCinf—obs,Bone,3.7274 μg equiv · h/g
same,Tmax,Bone,4 h
same,t1/2,"Bone, estimate (footnote a)",53.9 h
same,AUCall,Brain (cerebellum),0.8610 μg equiv · h/g
same,Tmax,Brain (cerebellum),8 h
same,AUCall,Brain (cerebrum),0.7650 μg equiv · h/g
same,Tmax,Brain (cerebrum),8 h
same,AUCall,Brain (medulla),0.5770 μg equiv · h/g
same,Tmax,Brain (medulla),4 h
same,AUCall,Cecum,174.4118 μg equiv · h/g
same,AUCinf—obs,Cecum,142.1970 μg equiv · h/g
same,Tmax,Cecum,8 h
same,t1/2,"Cecum, estimate (footnote a)",69.9 h
same,AUCall,Epididymis,31.1150 μg equiv · h/g
same,AUCinf—obs,Epididymis,22.3936 μg equiv · h/g
same,Tmax,Epididymis,4 h
same,t1/2,"Epididymis, estimate (footnote a)",89.0 h
same,AUCall,Esophagus,27.9015 μg equiv · h/g
same,AUCinf—obs,Esophagus,29.1559 μg equiv · h/g
same,Tmax,Esophagus,4 h
same,t1/2,Esophagus,37.2 h
same,AUCall,Eye (uveal tract),16.2765 μg equiv · h/g
same,AUCinf—obs,Eye (uveal tract),19.8244 μg equiv · h/g
same,Tmax,Eye (uveal tract),8 h
same,t1/2,"Eye (uveal tract), estimate (footnote a)",57.7 h
same,AUCall,Harderian Gland,63.7645 μg equiv · h/g
same,AUCinf—obs,Harderian Gland,50.8931 μg equiv · h/g
same,Tmax,Harderian Gland,8 h
same,t1/2,"Harderian Gland, estimate (footnote a)",151.8 h
same,AUCall,Heart,31.1603 μg equiv · h/g
same,AUCinf—obs,Heart,23.2365 μg equiv · h/g
same,Tmax,Heart,8 h
same,t1/2,"Heart, estimate (footnote a)",110.8 h
same,AUCall,Kidney Cortex,804.4980 μg equiv · h/g
same,AUCinf—obs,Kidney Cortex,822.5076 μg equiv · h/g
same,Tmax,Kidney Cortex,8 h
same,t1/2,"Kidney Cortex, estimate (footnote a)",244.8 h
same,AUCall,Kidney Medulla,342.0130 μg equiv · h/g
same,AUCinf—obs,Kidney Medulla,286.4307 μg equiv · h/g
same,Tmax,Kidney Medulla,8 h
same,t1/2,Kidney Medulla,41.2 h
same,AUCall,Large Intestine,140.3313 μg equiv · h/g
same,AUCinf—obs,Large Intestine,123.4302 μg equiv · h/g
same,Tmax,Large Intestine,8 h
same,t1/2,"Large Intestine, estimate (footnote a)",37.6 h
same,AUCall,Liver,1426.6340 μg equiv · h/g
same,AUCinf—obs,Liver,1435.9700 μg equiv · h/g
same,Tmax,Liver,4 h
same,t1/2,"Liver, estimate (footnote a)",190.3 h
same,AUCall,Lung,53.1145 μg equiv · h/g
same,AUCinf—obs,Lung,39.9962 μg equiv · h/g
same,Tmax,Lung,8 h
same,t1/2,Lung,93.0 h
same,AUCall,Lymph Node,85.04 μg equiv · h/g
same,AUCinf—obs,Lymph Node,57.7701 μg equiv · h/g
same,Tmax,Lymph Node,8 h
same,t1/2,"Lymph Node, estimate (footnote a)",86.4 h
same,AUCall,Pancreas,10.3720 μg equiv · h/g
same,AUCinf—obs,Pancreas,12.7271 μg equiv · h/g
same,Tmax,Pancreas,4 h
same,t1/2,Pancreas,62.1 h
same,AUCall,Pituitary Gland,30.5073 μg equiv · h/g
same,AUCinf—obs,Pituitary Gland,22.8331 μg equiv · h/g
same,Tmax,Pituitary Gland,4 h
same,t1/2,Pituitary Gland,106.2 h
same,AUCall,Prostate Gland,7.6578 μg equiv · h/g
same,AUCinf—obs,Prostate Gland,11.0471 μg equiv · h/g
same,Tmax,Prostate Gland,4 h
same,t1/2,Prostate Gland,70.1 h
same,AUCall,Salivary Gland,9.1933 μg equiv · h/g
same,AUCinf—obs,Salivary Gland,12.3800 μg equiv · h/g
same,Tmax,Salivary Gland,8 h
same,t1/2,"Salivary Gland, estimate (footnote a)",67.4 h
same,AUCall,Seminal Vesicles,50.2500 μg equiv · h/g
same,AUCinf—obs,Seminal Vesicles,34.9600 μg equiv · h/g
same,Tmax,Seminal Vesicles,1 h
same,t1/2,Seminal Vesicles,64.7 h
same,AUCall,Skeletal Muscle,1.3265 μg equiv · h/g
same,Tmax,Skeletal Muscle,8 h
same,AUCall,Skin (non-pigmented),14.0275 μg equiv · h/g
same,AUCinf—obs,Skin (non-pigmented),20.6749 μg equiv · h/g
same,Tmax,Skin (non-pigmented),8 h
same,t1/2,"Skin (non-pigmented), estimate (footnote a)",93.7 h
same,AUCall,Skin (pigmented),17.0405 μg equiv · h/g
same,AUCinf—obs,Skin (pigmented),21.3144 μg equiv · h/g
same,Tmax,Skin (pigmented),8 h
same,t1/2,"Skin (pigmented), estimate (footnote a)",63.4 h
same,AUCinf—obs,Small Intestine,9585.0880 μg equiv · h/g
same,Tmax,Small Intestine,4 h
same,t1/2,Small Intestine,98.1 h
same,AUCall,"Small Intestine, 15 mg/kg",9575.1810 μg equiv · h/g
same,AUCall,Spinal Cord,0.1110 μg equiv · h/g
same,Tmax,Spinal Cord,4 h
same,AUCall,Spleen,172.2208 μg equiv · h/g
same,AUCinf—obs,Spleen,125.7566 μg equiv · h/g
same,Tmax,Spleen,24 h
same,t1/2,Spleen,115.4 h
same,AUCall,Stomach (mucosa),90.7575 μg equiv · h/g
same,AUCinf—obs,Stomach (mucosa),80.6917 μg equiv · h/g
same,Tmax,Stomach (mucosa),2 h
same,t1/2,Stomach (mucosa),66.8 h
same,AUCall,Testis,30.3920 μg equiv · h/g
same,AUCinf—obs,Testis,21.7757 μg equiv · h/g
same,Tmax,Testis,8 h
same,t1/2,"Testis, estimate (footnote a)",87.2 h
same,AUCall,Thymus,12.0843 μg equiv · h/g
same,AUCinf—obs,Thymus,20.6983 μg equiv · h/g
same,Tmax,Thymus,8 h
same,t1/2,"Thymus, estimate (footnote a)",96.9 h
same,AUCall,Thyroid,31.3395 μg equiv · h/g
same,AUCinf—obs,Thyroid,21.8086 μg equiv · h/g
same,Tmax,Thyroid,4 h
same,t1/2,Thyroid,59.0 h
same,AUCall,Urinary Bladder,111.2445 μg equiv · h/g
same,AUCinf—obs,Urinary Bladder,91.1627 μg equiv · h/g
same,Tmax,Urinary Bladder,8 h
same,t1/2,Urinary Bladder,49.7 h
